According to patent publication EP4722213A1, “NITROGEN-CONTAINING FUNCTIONAL GROUP-SUBSTITUTED PYRIDAZINOPYRIDONE DERIVATIVE AND USE THEREOF” (Sichuan Huiyu Pharmaceutical Co., Ltd., priority 2023, dated 2024):

Columns and labels:
[1] = target: T1, SOS1 (Homo sapiens, UniProt Q07889); test: biochemical
T1 sequence (Q07889 1-1333): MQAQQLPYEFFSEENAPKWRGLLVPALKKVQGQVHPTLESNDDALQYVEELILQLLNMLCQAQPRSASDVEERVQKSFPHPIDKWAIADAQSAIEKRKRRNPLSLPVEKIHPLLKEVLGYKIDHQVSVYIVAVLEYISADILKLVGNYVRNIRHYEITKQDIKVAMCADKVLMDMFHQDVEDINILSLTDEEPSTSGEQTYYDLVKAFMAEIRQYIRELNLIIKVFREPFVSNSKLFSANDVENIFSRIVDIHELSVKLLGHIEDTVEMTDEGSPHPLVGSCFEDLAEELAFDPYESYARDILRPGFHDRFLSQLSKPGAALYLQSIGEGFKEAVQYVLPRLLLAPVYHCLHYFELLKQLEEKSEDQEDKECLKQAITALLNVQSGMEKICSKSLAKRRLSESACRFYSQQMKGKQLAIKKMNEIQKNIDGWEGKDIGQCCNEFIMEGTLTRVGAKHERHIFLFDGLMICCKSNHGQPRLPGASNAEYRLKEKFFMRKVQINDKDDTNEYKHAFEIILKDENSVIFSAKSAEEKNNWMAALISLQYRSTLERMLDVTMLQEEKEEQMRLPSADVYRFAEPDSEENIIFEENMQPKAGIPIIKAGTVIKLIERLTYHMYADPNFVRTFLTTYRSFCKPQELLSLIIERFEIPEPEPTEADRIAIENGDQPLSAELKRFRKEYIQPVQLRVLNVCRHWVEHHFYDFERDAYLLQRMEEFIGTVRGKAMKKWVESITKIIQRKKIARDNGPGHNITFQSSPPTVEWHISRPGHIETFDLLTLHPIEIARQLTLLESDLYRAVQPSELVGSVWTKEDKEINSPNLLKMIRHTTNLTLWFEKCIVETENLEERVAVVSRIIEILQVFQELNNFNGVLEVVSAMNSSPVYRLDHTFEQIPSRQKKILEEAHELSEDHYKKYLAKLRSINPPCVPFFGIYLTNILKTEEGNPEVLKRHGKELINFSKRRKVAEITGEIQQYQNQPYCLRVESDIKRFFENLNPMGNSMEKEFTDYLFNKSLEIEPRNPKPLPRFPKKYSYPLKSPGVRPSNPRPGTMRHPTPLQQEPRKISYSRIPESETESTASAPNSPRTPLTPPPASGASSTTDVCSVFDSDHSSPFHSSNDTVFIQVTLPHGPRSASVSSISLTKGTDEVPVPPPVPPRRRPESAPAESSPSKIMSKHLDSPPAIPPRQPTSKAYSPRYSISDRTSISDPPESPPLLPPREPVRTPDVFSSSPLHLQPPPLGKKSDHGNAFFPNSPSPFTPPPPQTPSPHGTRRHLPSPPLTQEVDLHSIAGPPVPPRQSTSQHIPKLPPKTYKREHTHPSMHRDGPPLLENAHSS

[2] = Rat liver microsomal metabolic stability; format: in vitro ADME; details: rat liver microsomes
Summary of the method: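 Rat liver microsomes (1 mg/mL working solution) with test compound (working solution 100 µM) were pre-incubated 5 min at 37 °C, then started with NADPH (4.0 mM working solution). Residual compound measured by LC-MS/MS over time. T1/2 taken from first-order decay, scaled to CLint and hepatic CL with fu = 1.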

[3] = calculated from T1/2, fu defaulted to 1, read-out: CL(liver)

SMILES	IC50 [1] [nM]	half-life ([2]; NADPH, 37°C) [h]	CLint scaled [2, 3] [mL/min/kg]	half-life at 1 µM ([2]; NADPH, 37°C) [h]	CLint scaled at 1 µM [2, 3] [mL/min/kg]
C[C@@H](Nc1nnc(N2CCN(C)CC2)c2cc(=O)n(C3CC3)cc12)c1cccc(C(F)F)c1F [Example 77]	5.9	> 5	< 7.23	–	–
CCN1CCN(c2nnc(N[C@H](C)c3cccc(C(F)F)c3F)c3cn(C4CCC4)c(=O)cc23)CC1 [Example 112, (R)-6-cyclobutyl-4-((1-(3-(difluoromethyl)-2-fluorophenyl)ethyl)amino)-1-(4-ethylpiperazin-1-yl)pyrido[3,4-d]pyridazin-7(6H)-one]	5	–	–	3.32	10.2
C[C@@H](Nc1nnc(N2CCN(C3CCCC3)CC2)c2cc(=O)n(N3CCOCC3)cc12)c1cccc(C(F)F)c1F [Example 120, (R)-4-((1-(3-(difluoromethyl)-2-fluorophenyl)ethyl)amino)-1-(4-cyclopentylpiperazin-1-yl)-6-morpholinopyrido[3 ,4-d]pyridazin-7(6H)-one]	4.1	–	–	> 5	< 7.23
C[C@@H](Nc1nnc(N2CCN(C)CC2)c2cc(=O)n(C3CCC3)cc12)c1cccc(C(F)F)c1F [Example 88, (R)-6-cyclobutyl-4-((1-(3-(difluoromethyl)-2-fluorophenyl)ethyl)amino)-1-(4-methylpiperazin-1-yl)pyrido[3,4-d]pyridazin-7(6H)-one]	4.5	–	–	2.13	14.4
C[C@@H](Nc1nnc(N2CCN(C(C)(C)C)CC2)c2cc(=O)n(C3(C)CC3)cc12)c1cccc(C(F)F)c1F.O=CO [Example 222, (R)-1-(4-(tert-butyl)piperazin-1-yl)-4-((1-(3-(difluoromethyl)-2-fluorophenyl)ethyl)amino)-6-(1-methylcyclopropyl) pyrido[3,4-d]pyridazin-7(6H)-one formate]	5	–	–	3.63	9.47
CNc1nnc(N[C@H](C)c2cccc(C(F)(F)F)c2C)c2cn(C3(C)CC3)c(=O)cc12 [Example 73, (R)-4-((1-(2-methyl-3-(trifluoromethyl)phenyl)ethyl)amino)-1-(methylamino)-6-(1-methylcyclopropyl) pyrido[3,4-d]pyridazin-7(6H)-one]	4.4	–	–	1.59	17.7
C[C@@H](Nc1nnc(N2CCN(C)CC2)c2cc(=O)n(N3CCOCC3)cc12)c1cccc(C(F)F)c1F [Example 110, (R)-4-((1-(3-(difluoromethyl)-2-fluorophenyl)ethyl)amino)-1-(4-methylpiperazin-1-yl)-6-morpholinopyrido[3 ,4-d]pyridazin-7(6H)-one]	3.3	–	–	> 5	< 7.23
CCN1CCN(c2nnc(N[C@H](C)c3cccc(C(F)F)c3F)c3cn(N4CCOCC4)c(=O)cc23)CC1 [Example 109, (R)-4-((1-(3-(difluoromethyl)-2-fluorophenyl)ethyl)amino)-1-(4-ethylpiperazin-1-yl)-6-morpholinopyrido[3 ,4-d]pyridazin-7(6H)-one]	4.2	–	–	> 5	< 7.23
CCN1CCN(c2nnc(N[C@H](C)c3cccc(C(F)F)c3F)c3cn(C4CC(F)(F)C4)c(=O)cc23)CC1 [Example 98, (R)-6-(3,3-difluorocyclobutyl)-4-((1-(3-(difluoromethyl)-2-fluorophenyl)ethyl)amino)-1-(4-ethylpiperazin-1-yl)pyrido[3,4-d]pyridazin-7(6H)-one]	4.3	–	–	3.12	10.8
C[C@@H](Nc1nnc(N2CCN(C)CC2)c2cc(=O)n(C3(C)CC3)cc12)c1cccc(C(F)F)c1F.O=CO [Example 80, (R)-4-((1-(3-(difluoromethyl)-2-fluorophenyl)ethyl)amino)-6-(1-methylcyclopropyl)-1-(4-methylpiperazin-1-yl)pyrido[3,4-d]pyridazin-7(6H)-one formate]	4.5	–	–	2.68	12.1
CCN1CCN(c2nnc(N[C@H](C)c3cccc(C(F)F)c3F)c3cn(C4(C)CC4)c(=O)cc23)CC1 [Example 216, (R)-4-((1-(3-(difluoromethyl)-2-fluorophenyl)ethyl)amino)-1-(4-ethylpiperazin-1-yl)-6-(1-methylcyclopropyl) pyrido[3,4-d]pyridazin-7(6H)-one]	4.6	–	–	4.85	7.43
CNc1nnc(N[C@H](C)c2cccc(C(F)F)c2F)c2cn(C3(C)CC3)c(=O)cc12.O=CO [Example 9, (R)-4-((1-(3-(difluoromethyl)-2-fluorophenyl)ethyl)amino)-1-(methylamino)-6-(1-methylcyclopropyl) pyrido[3,4-d]pyridazin-7(6H)-one formate]	4.5	–	–	4.33	8.2
CC(C)Nc1nnc(N[C@H](C)c2cccc(C(F)F)c2F)c2cn(C3(C)CC3)c(=O)cc12.O=CO [Example 12, (R)-4-((1-(3-(difluoromethyl)-2-fluorophenyl)ethyl)amino)-1-(isopropylamino)-6-(1-methylcyclopropyl) pyrido[3,4-d]pyridazin-7(6H)-one formate]	4.9	–	–	2.5	12.8
CNc1nnc(N[C@H](C)c2cccc(C(F)(F)F)c2C)c2cn(C3CC3)c(=O)cc12 [Example 52, (R)-6-cyclopropyl-4-((1-(2-methyl-3-(trifluoromethyl)phenyl)ethyl)amino)-1-(methylamino)pyrid o[3,4-d]pyridazin-7(6H)-one]	5.7	–	–	1.41	19.2
CC(C)N1CCN(c2nnc(N[C@H](C)c3cccc(C(F)F)c3F)c3cn(C4(C)CC4)c(=O)cc23)CC1 [Example 217, (R)-4-((1-(3-(difluoromethyl)-2-fluorophenyl)ethyl)amino)-1-(4-isopropylpiperazin-1-yl)-6-(1-methylcyclopropyl) pyrido[3,4-d]pyridazin-7(6H)-one]	4.6	–	–	4.33	8.18
CC(C)N1CCN(c2nnc(N[C@H](C)c3cccc(C(F)F)c3F)c3cn(N4CCOCC4)c(=O)cc23)CC1 [Example 111, (R)-4-((1-(3-(difluoromethyl)-2-fluorophenyl)ethyl)amino)-1-(4-isopropylpiperazin-1-yl)-6-morpholinopyrido[3 ,4-d]pyridazin-7(6H)-one]	4.4	–	–	> 5	< 7.23
